One test deals with EGFR (UniProt P00533). To be noted: concentration not given here.
The target of another test is CDK2 (UniProt P24941). Briefly: Enzyme Assay. To be noted: for inhibition: concentration not given here.
In the next test the target is ROCK2 (UniProt O75116). Briefly: Inhibition of ROCK2 Kinase Activity. To be noted: for inhibition: concentration not given here.
In the next test the target is MAPK14 (UniProt Q16539). Briefly: Inhibition of MAPK14 Kinase Activity. To be noted: concentration not given here.

We go through 29 compounds from the Kinase Knowledgebase extract (Sharma et al. 2016).

Chain of EGFR (P00533 whole entry, looked up): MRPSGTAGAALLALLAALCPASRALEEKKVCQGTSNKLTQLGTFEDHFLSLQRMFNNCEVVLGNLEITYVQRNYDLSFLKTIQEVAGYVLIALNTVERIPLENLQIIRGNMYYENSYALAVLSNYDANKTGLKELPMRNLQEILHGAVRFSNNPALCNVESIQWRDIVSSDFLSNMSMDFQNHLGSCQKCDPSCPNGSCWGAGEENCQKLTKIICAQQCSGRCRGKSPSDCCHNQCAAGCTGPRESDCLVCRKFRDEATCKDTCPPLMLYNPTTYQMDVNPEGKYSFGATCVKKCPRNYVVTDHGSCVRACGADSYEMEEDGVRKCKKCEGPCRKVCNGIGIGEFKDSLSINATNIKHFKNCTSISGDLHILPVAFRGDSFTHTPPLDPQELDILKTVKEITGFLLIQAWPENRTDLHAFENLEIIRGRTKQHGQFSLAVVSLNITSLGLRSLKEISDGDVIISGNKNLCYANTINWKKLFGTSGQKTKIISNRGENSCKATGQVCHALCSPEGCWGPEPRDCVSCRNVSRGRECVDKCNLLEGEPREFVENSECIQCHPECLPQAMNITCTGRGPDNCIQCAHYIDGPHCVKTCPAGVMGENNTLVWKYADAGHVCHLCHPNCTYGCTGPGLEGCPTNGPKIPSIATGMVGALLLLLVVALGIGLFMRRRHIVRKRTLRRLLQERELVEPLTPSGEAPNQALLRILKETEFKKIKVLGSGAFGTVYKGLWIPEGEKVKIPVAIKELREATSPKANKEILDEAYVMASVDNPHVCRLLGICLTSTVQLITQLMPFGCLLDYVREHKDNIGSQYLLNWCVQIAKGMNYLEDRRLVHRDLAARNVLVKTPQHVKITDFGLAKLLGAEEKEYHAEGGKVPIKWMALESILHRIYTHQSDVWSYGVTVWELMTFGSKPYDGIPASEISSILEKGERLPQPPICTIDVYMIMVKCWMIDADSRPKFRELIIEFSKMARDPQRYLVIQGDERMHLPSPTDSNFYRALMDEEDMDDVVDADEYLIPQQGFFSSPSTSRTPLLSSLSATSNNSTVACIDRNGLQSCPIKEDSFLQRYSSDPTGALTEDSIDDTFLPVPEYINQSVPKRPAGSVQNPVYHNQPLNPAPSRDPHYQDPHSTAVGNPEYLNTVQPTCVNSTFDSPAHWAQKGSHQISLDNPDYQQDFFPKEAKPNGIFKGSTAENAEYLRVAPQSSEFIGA
Chain of ROCK2 (O75116 whole entry, looked up): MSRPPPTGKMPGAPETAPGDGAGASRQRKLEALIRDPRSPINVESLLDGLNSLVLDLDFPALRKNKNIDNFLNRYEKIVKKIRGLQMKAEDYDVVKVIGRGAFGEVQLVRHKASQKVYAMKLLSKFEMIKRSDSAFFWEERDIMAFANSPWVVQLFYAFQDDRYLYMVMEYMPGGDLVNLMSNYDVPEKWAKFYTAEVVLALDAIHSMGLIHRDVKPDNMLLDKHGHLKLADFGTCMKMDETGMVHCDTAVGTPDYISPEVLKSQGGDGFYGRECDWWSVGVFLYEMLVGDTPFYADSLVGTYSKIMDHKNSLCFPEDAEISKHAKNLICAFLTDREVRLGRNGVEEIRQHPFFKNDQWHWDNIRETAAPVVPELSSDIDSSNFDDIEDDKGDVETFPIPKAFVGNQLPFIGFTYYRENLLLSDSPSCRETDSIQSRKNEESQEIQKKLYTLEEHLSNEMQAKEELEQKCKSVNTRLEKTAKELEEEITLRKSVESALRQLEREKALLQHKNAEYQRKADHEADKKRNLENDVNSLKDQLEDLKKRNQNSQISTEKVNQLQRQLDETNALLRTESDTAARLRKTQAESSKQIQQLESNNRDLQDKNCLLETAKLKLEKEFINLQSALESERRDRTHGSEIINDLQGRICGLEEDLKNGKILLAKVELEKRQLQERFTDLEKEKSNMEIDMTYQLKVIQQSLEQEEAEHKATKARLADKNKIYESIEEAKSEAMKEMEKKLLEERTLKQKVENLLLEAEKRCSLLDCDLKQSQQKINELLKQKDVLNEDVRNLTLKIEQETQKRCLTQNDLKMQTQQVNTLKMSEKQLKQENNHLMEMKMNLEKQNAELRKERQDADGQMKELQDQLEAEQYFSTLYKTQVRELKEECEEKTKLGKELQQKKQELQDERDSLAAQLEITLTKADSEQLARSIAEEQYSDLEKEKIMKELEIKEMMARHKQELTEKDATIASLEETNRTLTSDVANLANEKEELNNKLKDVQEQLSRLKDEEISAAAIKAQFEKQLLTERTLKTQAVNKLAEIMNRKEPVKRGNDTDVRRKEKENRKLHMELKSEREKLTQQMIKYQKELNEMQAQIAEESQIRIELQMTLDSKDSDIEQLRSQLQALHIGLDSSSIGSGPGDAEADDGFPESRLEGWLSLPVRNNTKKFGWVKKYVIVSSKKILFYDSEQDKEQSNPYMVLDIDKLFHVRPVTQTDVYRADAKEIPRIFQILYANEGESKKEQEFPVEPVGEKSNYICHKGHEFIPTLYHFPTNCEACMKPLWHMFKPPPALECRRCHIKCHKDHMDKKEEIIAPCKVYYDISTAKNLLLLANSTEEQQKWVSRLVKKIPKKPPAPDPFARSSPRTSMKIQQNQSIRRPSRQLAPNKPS
Chain of MAPK14 (Q16539 whole entry, looked up): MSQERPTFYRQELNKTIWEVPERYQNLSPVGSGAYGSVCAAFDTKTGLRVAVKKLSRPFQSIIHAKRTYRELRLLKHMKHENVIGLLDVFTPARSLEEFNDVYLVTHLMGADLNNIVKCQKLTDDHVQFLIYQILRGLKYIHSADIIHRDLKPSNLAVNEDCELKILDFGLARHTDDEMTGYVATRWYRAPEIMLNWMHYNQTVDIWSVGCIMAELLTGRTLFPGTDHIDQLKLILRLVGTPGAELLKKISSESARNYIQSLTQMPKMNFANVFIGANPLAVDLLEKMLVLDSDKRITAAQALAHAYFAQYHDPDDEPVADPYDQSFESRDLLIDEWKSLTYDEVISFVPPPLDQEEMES

On EGFR, `O=C(NCCO)c1cccc(-c2cncc(NCc3cccc(O)c3)c2)c1` had an inhibition of 50 to 90%.

In turn, `Oc1cccc(CNc2cncc(-c3ccccc3)c2)c1` showed an inhibition against EGFR of 50 to 90%.

Consider `Oc1ccc(-c2cncc(NCc3cccc(O)c3)c2)cc1`, for which the inhibition was 50 to 90% against EGFR and over 90% against CDK2. The same compound registered an IC50 against ROCK2 of under 1000 nM.

With `COc1cccc(-c2cncc(NCc3cccc(O)c3)c2)c1`, the inhibition on EGFR and against ROCK2 was 50 to 90% throughout. This compound displayed an IC50 at CDK2 of under 1000 nM.

Take `CS(=O)(=O)Nc1cccc(-c2cncc(NCc3cccc(O)c3)c2)c1`: at EGFR, the inhibition was 50 to 90%.

As for `COC(=O)c1cccc(-c2cncc(NCc3cccc(O)c3)c2)c1`, the inhibition against CDK2 was over 90%; against ROCK2 it was 50 to 90%.

Regarding `COc1cccc(-c2cncc(NCc3cccc(O)c3)c2)c1F`, the inhibition on EGFR is 50 to 90%.

The compound `Nc1cccc(-c2cncc(NCc3cccc(O)c3)c2)c1` showed an inhibition on EGFR of 50 to 90%.

Compound `CN(Cc1cccc(O)c1)c1cncc(-c2cccc(O)c2)c1` came in with an inhibition against ROCK2 of 50 to 90%.

As to `Oc1cccc(CNc2cncc(-c3cccnc3)c2)c1`, the inhibition at EGFR fell in the range of 50 to 90%.

Consider `OCc1ccc(-c2cncc(NCc3cccc(O)c3)c2)cc1`, for which the inhibition against EGFR and on ROCK2 was 50 to 90% each time.

For the compound `Oc1ccc(-c2cncc(NCc3ccc4c(c3)OCO4)c2)cc1`, on ROCK2, the inhibition lay within 50 to 90%.

Consider `Oc1cccc(CNc2cncc(-c3cccc(O)c3)c2)c1`, for which the inhibition on EGFR and on ROCK2 was 50 to 90% throughout.

Turning to `CC(=O)Nc1cccc(-c2cncc(Nc3ccc(F)cc3)c2)c1`, the inhibition at EGFR lay in the range of 50 to 90%.

As for `Oc1cccc(CCNc2cncc(-c3cccc(O)c3)c2)c1`, on EGFR, the inhibition was over 90%.

Consider `O=C(Nc1cncc(-c2cccc(O)c2)c1)c1cccc(O)c1`, for which, at EGFR, the inhibition is over 90%.

As to `CC(=O)Nc1cccc(-c2cncc(NCc3cccc(O)c3)c2)c1`, the inhibition against EGFR and at MAPK14 was 50 to 90% each time.

The compound `COc1ccc(-c2cncc(NCc3cccc(O)c3)c2)cc1OC` had an inhibition against EGFR of 50 to 90%.

In the case of `Oc1cccc(CNc2cncc(-c3ccc(N4CCOCC4)cc3)c2)c1`, the inhibition against EGFR was 50 to 90%.

For `OCc1cccc(-c2cncc(NCc3cccc(O)c3)c2)c1`, on EGFR, the inhibition was in the range of 50 to 90%.

Turning to `NC(=O)c1cccc(-c2cncc(NCc3cccc(O)c3)c2)c1`, the inhibition against EGFR was in the range of 50 to 90%. Besides, the IC50 on ROCK2 is under 1000 nM.

Compound `CN(C)CCNC(=O)c1cccc(-c2cncc(NCc3cccc(O)c3)c2)c1` yielded an inhibition at EGFR of 50 to 90%.

As for `Oc1ccc(-c2cncc(NCc3ccc(F)c(F)c3)c2)cc1`, on ROCK2, the inhibition lay in the range of 50 to 90%.

On EGFR, `CC(=O)Nc1cccc(-c2cncc(Nc3ccccc3F)c2)c1` had an inhibition of 50 to 90%.

`Oc1cccc(CNc2cncc(Cc3cccc(O)c3)c2)c1`: the inhibition on CDK2 was over 90%; against ROCK2, 50 to 90%.

At EGFR, `Oc1cccc(CNc2cncc(-c3cccc(O)c3F)c2)c1` gave an inhibition of 50 to 90%.

Regarding `O=C(O)c1cccc(-c2cncc(NCc3cccc(O)c3)c2)c1`, at EGFR, the inhibition lay within 50 to 90%.

On to `COC(=O)c1cccc(CNc2cncc(-c3cccc(O)c3)c2)c1`, for which the inhibition against EGFR lay within 50 to 90%.

As to `Cc1ccc(CNc2cncc(-c3cccc(O)c3)c2)cc1O`, the inhibition against EGFR and against ROCK2 was 50 to 90% each time.
